Paper PMC7468911 (Nutrients, 2020)

What follows are compounds tested against T1, ABCC11 (Homo sapiens, UniProt Q96J66) (assay: inhibition of ATP-dependent [3H]-DHEA-S transport in plasma membrane vesicles from ABCC11-expressing […] cells). Details: not given.
T1 construct: full-length human ABCC11 WT
Assay type: biochemical

T1 sequence (Q96J66 whole entry): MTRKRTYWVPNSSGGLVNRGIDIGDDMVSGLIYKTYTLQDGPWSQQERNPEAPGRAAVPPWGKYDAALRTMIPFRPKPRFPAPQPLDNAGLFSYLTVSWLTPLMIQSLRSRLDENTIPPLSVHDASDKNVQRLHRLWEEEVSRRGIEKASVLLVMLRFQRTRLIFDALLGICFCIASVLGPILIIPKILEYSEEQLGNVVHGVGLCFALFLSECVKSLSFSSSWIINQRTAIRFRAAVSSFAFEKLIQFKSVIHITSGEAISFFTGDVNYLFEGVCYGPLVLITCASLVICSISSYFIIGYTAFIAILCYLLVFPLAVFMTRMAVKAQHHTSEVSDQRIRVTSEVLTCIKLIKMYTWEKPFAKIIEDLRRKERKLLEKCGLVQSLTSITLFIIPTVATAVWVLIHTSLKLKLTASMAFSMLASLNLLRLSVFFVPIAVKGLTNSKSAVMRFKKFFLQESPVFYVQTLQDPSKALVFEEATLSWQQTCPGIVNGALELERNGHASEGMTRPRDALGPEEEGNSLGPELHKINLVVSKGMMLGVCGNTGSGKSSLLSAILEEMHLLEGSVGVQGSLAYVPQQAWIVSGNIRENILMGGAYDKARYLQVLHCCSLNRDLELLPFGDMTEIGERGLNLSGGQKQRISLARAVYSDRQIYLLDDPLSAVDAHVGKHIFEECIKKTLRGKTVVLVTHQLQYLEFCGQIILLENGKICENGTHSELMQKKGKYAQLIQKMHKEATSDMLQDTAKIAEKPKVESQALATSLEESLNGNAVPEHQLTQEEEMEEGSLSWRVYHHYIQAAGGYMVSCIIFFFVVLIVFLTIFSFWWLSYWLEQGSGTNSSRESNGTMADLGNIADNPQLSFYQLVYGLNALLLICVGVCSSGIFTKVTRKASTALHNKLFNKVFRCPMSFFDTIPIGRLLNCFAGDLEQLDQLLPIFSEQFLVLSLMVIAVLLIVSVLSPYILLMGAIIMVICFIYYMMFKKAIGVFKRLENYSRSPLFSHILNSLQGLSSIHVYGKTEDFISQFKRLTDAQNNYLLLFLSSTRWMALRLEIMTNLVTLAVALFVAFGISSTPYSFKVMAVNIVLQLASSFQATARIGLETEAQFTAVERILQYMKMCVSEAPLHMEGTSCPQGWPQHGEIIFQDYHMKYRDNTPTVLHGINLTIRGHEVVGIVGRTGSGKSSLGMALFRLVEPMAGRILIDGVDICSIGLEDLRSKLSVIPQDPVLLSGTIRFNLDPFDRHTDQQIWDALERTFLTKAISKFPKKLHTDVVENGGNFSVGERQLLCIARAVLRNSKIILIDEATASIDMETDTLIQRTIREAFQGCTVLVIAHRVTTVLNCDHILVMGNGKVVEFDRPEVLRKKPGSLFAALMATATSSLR

**Q.** With `O=c1c(-c2ccc(O)cc2)coc2cc(O)cc(O)c12` [genistein] as the compound, how does the IC50 read?
**A.** 61.5 µM

What follows are compounds tested against T1, ABCC11 (assay: cell-based). Details: read-out: ABCC11-Mediated DHEA-S Transport (% of Control).

**Q.** How did the remaining activity at 100 µM turn out when `COc1ccc(-c2cc(=O)c3c(OC)c(OC)c(OC)c(OC)c3o2)cc1OC` [compound 5, nobiletin] was run?
**A.** 0%

**Q.** For `O=c1cc(-c2ccc(O)c(O)c2)oc2cc(O)cc(O)c12` [compound 4, luteolin], which remaining activity at 100 µM is on record?
**A.** 0%

**Q.** Which remaining activity at 100 µM does the source give for `O=c1c(O)c(-c2ccc(O)c(O)c2)oc2cc(O)c(O)c(O)c12` [compound 16, quercetagetin] here?
**A.** 0%

**Q.** Which remaining activity at 100 µM does the source give for `O=C(CCc1ccc(O)cc1)c1c(O)cc(O)cc1O` [compound 20, phloretin] here?
**A.** 0.6 ± 3.9%

**Q.** For `O=C(/C=C/c1ccc(O)cc1)c1c(O)cc(O)cc1O` [compound 19, naringenin chalcone], which remaining activity at 100 µM is on record?
**A.** 12.4 ± 4.2%

**Q.** How did the remaining activity at 100 µM turn out when `O=C(O[C@@H]1Cc2c(O)cc(O)cc2O[C@H]1c1ccc(O)c(O)c1)c1cc(O)c(O)c(O)c1` [compound 23, (−)-catechin gallate] was run?
**A.** 10.5 ± 6%

What follows are compounds tested against T1, ABCC11 (assay: biochemical). Details: ABCC11-mediated DHEA-S transport, % of control, 5 min, 37 °C.
Design: Vesicle transport assay: ATP-dependent uptake of radiolabeled DHEA-S into ABCC11-expressing membrane vesicles, rapid filtration, scintillation counting
Source text: The inhibitory effects of the various target extracts and compounds on the ABCC11 function were examined using the in vitro vesicle transport assay, a well-established method to quantitatively evaluate ABC transporter function. For this purpose, the ATP-dependent transport of [1,2,6,7-^3H(N)]-dehydroepiandrosterone sulfate (DHEA-S) (PerkinElmer, Waltham, MA, USA), which is an ABCC11 substrate, into the ABCC11-expressing and control plasma membrane vesicles was quantified following our previous study with some minor modifications in the rapid filtration technique, as described below. In brief, the plasma membrane vesicles (0.25 mg/mL or indicated concentrations) were incubated with [1,2,6,7-^3H(N)]-DHEA-S (100 nM or indicated concentrations) in a reaction mixture (total 20 μL: 10 mM Tris/HCl, 250 mM sucrose, 10 mM MgCl2, 10 mM creatine phosphate, 1 mg/mL creatine phosphokinase, 50 mM ATP or AMP as a substitute of ATP, and pH 7.4) for 5 min at 37 °C, either without (i.e., with only vehicle control) or with the individual target fractions/authentic chemicals at the indicated concentrations. As the vehicle control, 1% water was used for plant extracts; 1% methanol (Nacalai Tesque) or 1% dimethyl sulfoxide (DMSO; Nacalai Tesque) was used for the individual target fractions, as described below. Since stock solutions of authentic chemicals were prepared with DMSO at 10 mM, 1% DMSO was employed as the vehicle control for them. After incubation, the reaction mixture was mixed with 980 μL of an ice-cold stop buffer (2 mM EDTA, 0.25 M sucrose, 0.1 M NaCl, 10 mM Tris-HCl, and pH 7.4) and rapidly filtered on a membrane filter (MF-Millipore Membrane (HAWP02500; Millipore, Tokyo, Japan) for extract screening or Whatman™ Grade GF/F Glass Microfiber Filter Paper (GE Healthcare) for the other experiments). After washing with 5 mL of the ice-cold stop buffer three times, the plasma membrane vesicles trapped on the membrane filter were dissolved in Clear-sol II (Nacalai Tesque). Then, the radioactivity incorporated into the plasma membrane vesicles was measured with a liquid scintillator (Tri-Carb 3110TR; PerkinElmer). The transport activity in each group was calculated as the incorporated clearance (μL/mg protein/min = incorporated level of DHEA-S (disintegrations per minute (DPM)/mg protein/min)/DHEA-S level in the incubation mixture (DPM/μL)). ATP-dependent DHEA-S transport was calculated by the difference in transport activity with and without ATP. Similarly, ABCC11-mediated DHEA-S transport activity was calculated by subtracting the ATP-dependent DHEA-S transport activity of control plasma membrane vesicles from that of ABCC11-expressing ones. Unless otherwise indicated, effects of the target fractions/compounds on the ATP-dependent DHEA-S transport activity were also examined for the control plasma membrane vesicles.

**Q.** For `O=c1c(O)c(-c2ccccc2)oc2cc(O)cc(O)c12` [Galangin], which remaining activity at 100 µM is on record?
**A.** 63.6 ± 5.9%

**Q.** For `O=C1C[C@@H](c2ccc(O)cc2)Oc2cc(O)cc(O)c21` [Naringenin], which remaining activity at 100 µM is on record?
**A.** 38.4 ± 31.6%

**Q.** For `O=C(O[C@@H]1Cc2c(O)cc(O)cc2O[C@@H]1c1cc(O)c(O)c(O)c1)c1cc(O)c(O)c(O)c1` [(−)-Epigallocatechin gallate], which remaining activity at 100 µM is on record?
**A.** 37.5 ± 7%

**Q.** How did the remaining activity at 100 µM turn out when `O=c1c(O)c(-c2ccc(O)c(O)c2)oc2cc(O)ccc12` [Fisetin] was run?
**A.** 37.7 ± 1%

**Q.** For `O=c1cc(-c2ccc(O)cc2)oc2cc(O)cc(O)c12` [Apigenin], which remaining activity at 100 µM is on record?
**A.** 25.3 ± 12.5%

**Q.** With `O=c1c(O)c(-c2ccc(O)cc2O)oc2cc(O)cc(O)c12` [Morin] as the compound, how does the remaining activity at 100 µM read?
**A.** 41.5 ± 3.4%

**Q.** With `COc1ccc([C@@H]2CC(=O)c3c(O)cc(O)cc3O2)cc1O` [Hesperetin] as the compound, how does the remaining activity at 100 µM read?
**A.** 5.2 ± 26.9%

**Q.** Which remaining activity at 100 µM does the source give for `O=C(O[C@@H]1Cc2c(O)cc(O)cc2O[C@H]1c1cc(O)c(O)c(O)c1)c1cc(O)c(O)c(O)c1` [(−)-Gallocatechin gallate] here?
**A.** 24 ± 2.5%

**Q.** With `O=c1c(O)c(-c2ccccc2)oc2ccccc12` [3-Hydroxyflavone] as the compound, how does the remaining activity at 100 µM read?
**A.** 91.7 ± 1.1%

**Q.** Which remaining activity at 100 µM does the source give for `Oc1cc(O)c2c(c1)O[C@H](c1cc(O)c(O)c(O)c1)[C@@H](O)C2` [(+)-Gallocatechin] here?
**A.** 87.6 ± 27.6%

**Q.** `O=c1c(O)c(-c2ccc(O)c(O)c2)oc2c(O)c(O)cc(O)c12` [Gossypetin] was tested. Which remaining activity at 100 µM did it give?
**A.** 46 ± 8.4%

**Q.** Which remaining activity at 100 µM does the source give for `Oc1cc(O)c2c(c1)O[C@H](c1ccc(O)c(O)c1)[C@@H](O)C2` [(+)-Catechin] here?
**A.** 91.9 ± 5.9%

**Q.** How did the remaining activity at 100 µM turn out when `O=c1c(O)c(-c2ccc(O)c(O)c2)oc2cc(O)cc(O)c12` [Quercetin] was run?
**A.** 34.6 ± 18.3%

**Q.** Which remaining activity at 100 µM does the source give for `COc1cc(O)cc(O)c1C(=O)/C=C/c1ccccc1` [Cardamonin] here?
**A.** 73.4 ± 10.8%

**Q.** How did the remaining activity at 100 µM turn out when `Oc1cc(O)c2c(c1)O[C@H](c1ccc(O)c(O)c1)[C@H](O)C2` [(−)-Epicatechin] was run?
**A.** 85.2 ± 24.4%

**Q.** For `O=c1c(O)c(-c2ccc(O)cc2)oc2cc(O)cc(O)c12` [Kaempferol], which remaining activity at 100 µM is on record?
**A.** 42.8 ± 1%

**Q.** With `COc1cc(O)c(CC=C(C)C)c(O)c1C(=O)/C=C/c1ccc(O)cc1` [Xanthohumol] as the compound, how does the remaining activity at 100 µM read?
**A.** 19.7 ± 13.6%

**Q.** `Oc1cc(O)c2c(c1)O[C@H](c1cc(O)c(O)c(O)c1)[C@H](O)C2` [(−)-Epigallocatechin] was tested. Which remaining activity at 100 µM did it give?
**A.** 83.6 ± 29%

**Q.** For `O=C1c2c(O)cc(O)cc2O[C@H](c2cc(O)c(O)c(O)c2)[C@H]1O` [Dihydromyricetin], which remaining activity at 100 µM is on record?
**A.** 56.9 ± 23.4%

**Q.** How did the remaining activity at 100 µM turn out when `O=C1c2c(O)cc(O)cc2O[C@H](c2ccc(O)c(O)c2)[C@H]1O` [Taxifolin] was run?
**A.** 43.2 ± 26%
